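Step 1: Grow cells in 96-well plates. Step 2: Expose to compound for 48 hours at 5 concentrations. Step 3: Interpolate endpoints linearly; if unreached, use highest concentration. At the GI50, growth is halved. TGI: concentration producing complete growth inhibition.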
Experiments:
Assay in all cases: inhibition of tumour cell growth, NCI panel, 48 h
[1] = tested on: U251 CNS
[2] = tested on: SR leukemia
[3] = tested on: HOP-92 NSCLC
[4] = tested on: UACC-62 melanoma
[5] = tested on: SK-MEL-5 melanoma
[6] = tested on: SN12C renal
[7] = tested on: SK-OV-3 ovarian
[8] = tested on: MCF7 breast
[9] = tested on: DU-145 prostate
[10] = tested on: EKVX NSCLC

`O=C1OCc2cc3cc4c(cc3c(-c3ccc5c(c3)OCO5)c21)OCO4` (tested in a mixture with another compound) was tested, and the TGI [1] was 43.7 µM, the TGI [2] was > 100 µM and the TGI [3] was 43.5 µM. For the same molecule, the TGI [4] was 68 µM, the TGI [5] was 33.6 µM and the TGI [6] was > 100 µM. The TGI [7] was 48.1 µM, the TGI [8] was > 100 µM and the TGI [9] was 55.2 µM.

Molecule `CN1CC(CNC(=O)OCc2ccccc2)CC2c3cccc4c3c(cn4C)CC21` (stereo not drawn) has a GI50 [1] of 1.46 µM, a TGI [1] of 2.91 µM and a GI50 [3] of 1.72 µM. For the same molecule, the TGI [3] was 5.95 µM, the GI50 [10] was 5.2 µM and the TGI [10] was 21.3 µM. The GI50 [4] was 1.66 µM, the TGI [4] was 3.17 µM and the GI50 [5] was 1.49 µM. The TGI [5] was 2.86 µM, the GI50 [6] was 2.86 µM and the TGI [6] was 11.3 µM. The GI50 [8] was 1.77 µM, the TGI [8] was 3.29 µM and the GI50 [9] was 3.88 µM. For the same molecule, the TGI [9] was 14.4 µM.

In the case of `COc1ccc(OC)c(CC(C)N)c1` (stereo not drawn), the TGI [1] is reported as > 100 µM, the TGI [10] is reported as > 100 µM and the TGI [4] is reported as > 100 µM. For the same molecule, the TGI [5] was > 100 µM, the TGI [6] was > 100 µM and the TGI [7] was > 100 µM.

For `COc1c(OC/C=C(\C)CCC=C(C)C)ccc2ccc(=O)oc12`, the TGI [1] was > 100 µM, the TGI [2] was > 100 µM and the TGI [3] was > 100 µM. For the same molecule, the TGI [10] was > 100 µM, the TGI [4] was > 100 µM and the TGI [5] was > 100 µM. For the same molecule, the TGI [6] was > 100 µM, the TGI [7] was > 100 µM and the TGI [8] was > 100 µM. The TGI [9] was > 100 µM.

With `CC(C)(C)OC(=O)NC1CCC(C(C)(C)C)CC1` (stereo not drawn) the TGI [1] was > 100 µM, the TGI [10] was > 100 µM and the TGI [4] was > 100 µM. The TGI [5] was > 72.4 µM, the TGI [6] was > 100 µM and the TGI [7] was > 100 µM. For the same molecule, the TGI [8] was > 100 µM.

With `C=CCSSCC=C` the TGI [1] was > 100 µM, the TGI [2] was 50.2 µM and the TGI [3] was > 100 µM. The TGI [10] was > 100 µM, the TGI [4] was > 100 µM and the TGI [5] was > 100 µM. The TGI [6] was > 86.9 µM, the TGI [7] was > 100 µM and the TGI [8] was > 100 µM. For the same molecule, the TGI [9] was > 100 µM.

With `CCCC(=O)O.CCCC(=O)O.CCCC(=O)O.CCCC(=O)O.[Rh].[Rh]` the GI50 [2] was 0.0586 µM, the TGI [2] was 1.06 µM and the GI50 [3] was 0.211 µM. It also gave a TGI [3] of 0.476 µM, a GI50 [10] of 0.168 µM and a TGI [10] of 0.943 µM. The GI50 [4] was 0.0343 µM, the TGI [4] was 0.142 µM and the GI50 [5] was 0.107 µM. For the same molecule, the TGI [5] was 0.248 µM, the GI50 [7] was 0.278 µM and the TGI [7] was 0.829 µM. It also gave a GI50 [9] of 0.181 µM and a TGI [9] of 0.491 µM.

For `O=C1OC2CC=CC1C2` (stereo not drawn), the TGI [1] was > 100 µM, the TGI [3] was > 100 µM and the TGI [10] was > 100 µM. For the same molecule, the TGI [4] was > 100 µM, the TGI [5] was > 100 µM and the TGI [6] was > 100 µM. For the same molecule, the TGI [7] was > 100 µM and the TGI [8] was > 100 µM.

In the case of `SC1CCCN(Cc2ccccc2)C1` (stereo not drawn), the TGI [1] is reported as > 100 µM, the TGI [2] is reported as 71.5 µM and the TGI [3] is reported as > 100 µM. For the same molecule, the TGI [10] was > 100 µM, the TGI [4] was > 100 µM and the TGI [5] was 35.4 µM. The TGI [6] was > 100 µM, the TGI [7] was > 100 µM and the TGI [8] was 39.4 µM. The TGI [9] was > 100 µM.

`O=C(/C=C/c1ccccc1)N1CCCCC1` was tested, and the TGI [1] was > 100 µM, the TGI [2] was > 100 µM and the TGI [3] was > 100 µM. The TGI [10] was > 100 µM, the TGI [4] was > 100 µM and the TGI [5] was > 100 µM. The TGI [6] was > 100 µM, the TGI [7] was > 100 µM and the TGI [8] was > 100 µM. The TGI [9] was > 100 µM.

In the case of `C=C1C(=O)OC2CC1CCC1(C)OC1CCC(C)=CCCC2(C)O` (stereo not drawn), the TGI [1] is reported as 29.2 µM, the TGI [3] is reported as 5.89 µM and the TGI [10] is reported as 13.9 µM. The TGI [4] was 10 µM, the TGI [5] was 10.2 µM and the TGI [6] was 11.6 µM. The TGI [7] was 36.7 µM and the TGI [8] was 9.64 µM.
